The results in this text go back to patent US10479786B2, “Protein kinase inhibitors” (Princeton Drug Discovery Inc, priority 2016, dated 2019).

Data set [1] in a line: Lung tissue and plasma concentration ratios in mice. Type of data set: in vivo, CD-1 mouse. Particulars: single oral dose 5 mg/kg, 2-in-1 with dasatinib, all time points tested. On the procedure:
CD-1 mouse (approximate weight 30 g, N=3) were dosed by oral gavage at 10 mL/kg. Blood samples were collected into tubes containing EDTA as the anticoagulant at 1, 2, 4, 10 h post-dosing for Compound X, and predose, 1, 2, 3, 8, 10 and 24 h post-dosing for Compound XI. The plasma samples were prepared by centrifugation. Lung samples were also collected at each of the above time points. The lung samples were homogenated in 4× distilled water (v/w). The plasma samples and the homogenated lung tissue samples were mixed with 3× volumes of acetonitrile containing 100 nM reserpine as the internal standard, and centrifuged at 4000 RPM for 15 min. The supernatants were injected for LC/MS analysis which were carried out on a AB Sciex 4000 Q Trap LC/MS/MS system coupled with Shimadzu Prominence UFLCXR 20 series (including a CBM-20A controller, two LC-20ADXR solvent delivery units, SIL-20AC HT autosampler, CTO-20A column oven, and a SPD-20A UV detector). The samples were separated on a Phenomenex Columbus column (C18, 4 μm, 50×2 mm) eluted with two solvent systems: 2 mM ammonium acetate in water containing 0.1% formic acid (A) and methanol (B) at a linear gradient starting at 25%. Electrospray ionization in positive mode was used to acquire LC/MS/MS data.

For another data set, the target named is T1, HER2 (Homo sapiens, UniProt P04626).
T1 construct: purchased Carna Biosciences, Inc
As to the kind of experiment: Off-chip Mobility Shift Assay, kinase inhibition. The format is biochemical. Particulars: recombinant HER2; for inhibition at 0.01 µM: at 10 nM.

A further data set concerns the target T2, RAF1 (Homo sapiens, UniProt P04049, Y340D/Y341D).
T2 construct: purchased Carna Biosciences, Inc
Put plainly: Off-chip Mobility Shift Assay, kinase inhibition. The format is biochemical. Particulars: recombinant RAF1; for inhibition at 0.01 µM: at 10 nM.

In the next data set the target is T3, BRAF (Homo sapiens, UniProt P15056).
T3 construct: purchased Carna Biosciences, Inc
Put plainly: Off-chip Mobility Shift Assay, kinase inhibition. The format is biochemical. Particulars: recombinant BRAF; for inhibition at 0.01 µM: at 10 nM.

The next data set has as its target T4, YES(T348I) (Homo sapiens, UniProt P07947, T348I).
T4 construct: purchased Carna Biosciences, Inc
Put plainly: Off-chip Mobility Shift Assay, kinase inhibition. Type of data set: biochemical. Particulars: recombinant YES(T348I).

A further data set concerns the target T5, EGFR (Homo sapiens, UniProt P00533).
T5 construct: purchased Carna Biosciences, Inc
As to the kind of experiment: Off-chip Mobility Shift Assay, kinase inhibition. Type of data set: biochemical. Particulars: recombinant EGFR; for inhibition at 0.01 µM: at 10 nM.

Another data set concerns the target T6, p38β (Homo sapiens, UniProt Q15759).
T6 construct: purchased Carna Biosciences, Inc
Put plainly: Off-chip Mobility Shift Assay, kinase inhibition. Type of data set: biochemical. Particulars: recombinant p38β; for inhibition at 0.01 µM: at 10 nM.

A further data set addresses T7, KIT(V560G) (Homo sapiens, UniProt P10721, V560G).
T7 construct: purchased Carna Biosciences, Inc
As to the kind of experiment: Off-chip Mobility Shift Assay, kinase inhibition. Type of data set: biochemical. Particulars: recombinant KIT(V560G); for inhibition at 0.01 µM: at 10 nM.

A further data set concerns the target T8, FYN(isoform b) (Homo sapiens, UniProt P06241).
T8 construct: purchased Carna Biosciences, Inc
Put plainly: Off-chip Mobility Shift Assay, kinase inhibition. Type of data set: biochemical. Particulars: recombinant FYN(isoform b).

The target of another data set is T9, p38α (Homo sapiens, UniProt Q16539).
T9 construct: purchased Carna Biosciences, Inc
Put plainly: Off-chip Mobility Shift Assay, kinase inhibition. The format is biochemical. Particulars: recombinant p38α; for inhibition at 0.01 µM: at 10 nM.

Another data set deals with T10, KIT (Homo sapiens, UniProt P10721).
T10 construct: purchased Carna Biosciences, Inc
As to the kind of experiment: Off-chip Mobility Shift Assay, kinase inhibition. Type of data set: biochemical. Particulars: recombinant KIT; for inhibition at 0.01 µM: at 10 nM.

The target of another data set is T11, ROCK1 (Homo sapiens, UniProt Q13464).
T11 construct: purchased Carna Biosciences, Inc
Put plainly: Off-chip Mobility Shift Assay, kinase inhibition. Particulars: at 10 nM; recombinant ROCK1. Type of data set: biochemical.

The target of the next data set is T12, BRK (Homo sapiens, UniProt Q13882).
T12 construct: purchased Carna Biosciences, Inc
Put plainly: Off-chip Mobility Shift Assay, kinase inhibition. Type of data set: biochemical. Particulars: at 10 nM; recombinant BRK.

For another data set, the target named is T13, PDGFRα(D842V) (Homo sapiens, UniProt P16234, D842V).
T13 construct: purchased Carna Biosciences, Inc
Put plainly: Off-chip Mobility Shift Assay, kinase inhibition. The format is biochemical. Particulars: at 10 nM; recombinant PDGFRα(D842V).

For a further data set, the target named is T14, FGFR3 (Homo sapiens, UniProt P22607).
T14 construct: purchased Carna Biosciences, Inc
As to the kind of experiment: Off-chip Mobility Shift Assay, kinase inhibition. Particulars: at 10 nM; recombinant FGFR3. The format is biochemical.

The next data set has as its target T15, PKD1 (Homo sapiens, UniProt Q15139).
T15 construct: purchased Carna Biosciences, Inc
Put plainly: Off-chip Mobility Shift Assay, kinase inhibition. The format is biochemical. Particulars: at 10 nM; recombinant PKD1.

In a further data set the target is T16, JAK1 (Homo sapiens, UniProt P23458).
T16 construct: purchased Carna Biosciences, Inc
Put plainly: Off-chip Mobility Shift Assay, kinase inhibition. Particulars: at 10 nM; recombinant JAK1. Type of data set: biochemical.

The next data set has as its target T17, RET(M918T) (Homo sapiens, UniProt P07949, M918T).
T17 construct: purchased Carna Biosciences, Inc
As to the kind of experiment: Off-chip Mobility Shift Assay, kinase inhibition. The format is biochemical. Particulars: at 10 nM; recombinant RET(M918T).

The target of the next data set is T18, Erk1 (Homo sapiens, UniProt P27361).
T18 construct: purchased Carna Biosciences, Inc
As to the kind of experiment: Off-chip Mobility Shift Assay, kinase inhibition. Particulars: at 10 nM; recombinant Erk1. The format is biochemical.

The next data set addresses T19, EGFR(T790M/L858R) (Homo sapiens, UniProt P00533, L858R/T790M).
T19 construct: purchased Carna Biosciences, Inc
As to the kind of experiment: Off-chip Mobility Shift Assay, kinase inhibition. Particulars: at 10 nM; recombinant EGFR(T790M/L858R). Type of data set: biochemical.

In another data set the target is T20, SRM (Homo sapiens, UniProt Q9H3Y6).
T20 construct: purchased Carna Biosciences, Inc
Put plainly: Off-chip Mobility Shift Assay, kinase inhibition. The format is biochemical. Particulars: at 10 nM; recombinant SRM.

Another data set has as its target T21, EGFR(d746-750/T790M) (Homo sapiens, UniProt P00533, DEL746-750/T790M).
T21 construct: purchased Carna Biosciences, Inc
Put plainly: Off-chip Mobility Shift Assay, kinase inhibition. Particulars: at 10 nM; recombinant EGFR(d746-750/T790M). Type of data set: biochemical.

The target in a further data set is T22, FGFR2 (Homo sapiens, UniProt P21802).
T22 construct: purchased Carna Biosciences, Inc
As to the kind of experiment: Off-chip Mobility Shift Assay, kinase inhibition. Particulars: at 10 nM; recombinant FGFR2. The format is biochemical.

The next data set deals with T23, ALK (Homo sapiens, UniProt Q9UM73).
T23 construct: purchased Carna Biosciences, Inc
Put plainly: Off-chip Mobility Shift Assay, kinase inhibition. Type of data set: biochemical. Particulars: at 10 nM; recombinant ALK.

The target of a further data set is T24, MAP2K1 (Homo sapiens, UniProt Q02750).
T24 construct: purchased Carna Biosciences, Inc
Put plainly: Off-chip Mobility Shift Assay, kinase inhibition. The format is biochemical. Particulars: at 10 nM; recombinant MAP2K1.

For a further data set, the target named is T25, HER4 (Homo sapiens, UniProt Q15303).
T25 construct: purchased Carna Biosciences, Inc
Put plainly: Off-chip Mobility Shift Assay, kinase inhibition. Particulars: at 10 nM; recombinant HER4. The format is biochemical.

T3 sequence (P15056 whole entry): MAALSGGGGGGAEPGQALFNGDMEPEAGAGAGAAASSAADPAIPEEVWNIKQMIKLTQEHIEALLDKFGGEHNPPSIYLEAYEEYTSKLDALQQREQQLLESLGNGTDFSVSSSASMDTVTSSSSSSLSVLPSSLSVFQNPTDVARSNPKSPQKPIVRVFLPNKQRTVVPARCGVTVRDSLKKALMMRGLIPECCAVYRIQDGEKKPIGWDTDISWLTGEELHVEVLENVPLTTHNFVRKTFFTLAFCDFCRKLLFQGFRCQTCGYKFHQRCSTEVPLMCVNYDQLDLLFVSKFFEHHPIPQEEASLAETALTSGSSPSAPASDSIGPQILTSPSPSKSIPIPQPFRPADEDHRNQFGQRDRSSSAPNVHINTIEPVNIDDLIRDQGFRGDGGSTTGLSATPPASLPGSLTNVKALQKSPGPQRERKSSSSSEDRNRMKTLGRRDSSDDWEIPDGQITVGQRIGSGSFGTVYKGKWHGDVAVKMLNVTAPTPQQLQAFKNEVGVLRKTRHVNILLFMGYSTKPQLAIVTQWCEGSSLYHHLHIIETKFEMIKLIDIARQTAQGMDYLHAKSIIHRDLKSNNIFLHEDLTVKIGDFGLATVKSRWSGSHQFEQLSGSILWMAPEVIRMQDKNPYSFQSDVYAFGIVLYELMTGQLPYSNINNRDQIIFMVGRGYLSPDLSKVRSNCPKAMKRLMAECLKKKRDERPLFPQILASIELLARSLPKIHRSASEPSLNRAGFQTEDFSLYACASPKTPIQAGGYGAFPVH
T9 sequence (Q16539 whole entry): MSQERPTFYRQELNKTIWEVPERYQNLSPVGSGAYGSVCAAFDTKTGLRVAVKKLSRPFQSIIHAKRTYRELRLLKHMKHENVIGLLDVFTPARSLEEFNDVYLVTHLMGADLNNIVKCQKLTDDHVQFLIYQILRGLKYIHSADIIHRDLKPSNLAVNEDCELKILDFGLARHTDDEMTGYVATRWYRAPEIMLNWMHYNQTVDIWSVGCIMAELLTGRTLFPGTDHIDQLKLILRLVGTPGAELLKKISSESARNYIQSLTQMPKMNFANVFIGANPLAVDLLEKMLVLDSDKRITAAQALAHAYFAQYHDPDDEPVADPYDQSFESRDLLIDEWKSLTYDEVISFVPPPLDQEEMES
T5 sequence (P00533 25-1210): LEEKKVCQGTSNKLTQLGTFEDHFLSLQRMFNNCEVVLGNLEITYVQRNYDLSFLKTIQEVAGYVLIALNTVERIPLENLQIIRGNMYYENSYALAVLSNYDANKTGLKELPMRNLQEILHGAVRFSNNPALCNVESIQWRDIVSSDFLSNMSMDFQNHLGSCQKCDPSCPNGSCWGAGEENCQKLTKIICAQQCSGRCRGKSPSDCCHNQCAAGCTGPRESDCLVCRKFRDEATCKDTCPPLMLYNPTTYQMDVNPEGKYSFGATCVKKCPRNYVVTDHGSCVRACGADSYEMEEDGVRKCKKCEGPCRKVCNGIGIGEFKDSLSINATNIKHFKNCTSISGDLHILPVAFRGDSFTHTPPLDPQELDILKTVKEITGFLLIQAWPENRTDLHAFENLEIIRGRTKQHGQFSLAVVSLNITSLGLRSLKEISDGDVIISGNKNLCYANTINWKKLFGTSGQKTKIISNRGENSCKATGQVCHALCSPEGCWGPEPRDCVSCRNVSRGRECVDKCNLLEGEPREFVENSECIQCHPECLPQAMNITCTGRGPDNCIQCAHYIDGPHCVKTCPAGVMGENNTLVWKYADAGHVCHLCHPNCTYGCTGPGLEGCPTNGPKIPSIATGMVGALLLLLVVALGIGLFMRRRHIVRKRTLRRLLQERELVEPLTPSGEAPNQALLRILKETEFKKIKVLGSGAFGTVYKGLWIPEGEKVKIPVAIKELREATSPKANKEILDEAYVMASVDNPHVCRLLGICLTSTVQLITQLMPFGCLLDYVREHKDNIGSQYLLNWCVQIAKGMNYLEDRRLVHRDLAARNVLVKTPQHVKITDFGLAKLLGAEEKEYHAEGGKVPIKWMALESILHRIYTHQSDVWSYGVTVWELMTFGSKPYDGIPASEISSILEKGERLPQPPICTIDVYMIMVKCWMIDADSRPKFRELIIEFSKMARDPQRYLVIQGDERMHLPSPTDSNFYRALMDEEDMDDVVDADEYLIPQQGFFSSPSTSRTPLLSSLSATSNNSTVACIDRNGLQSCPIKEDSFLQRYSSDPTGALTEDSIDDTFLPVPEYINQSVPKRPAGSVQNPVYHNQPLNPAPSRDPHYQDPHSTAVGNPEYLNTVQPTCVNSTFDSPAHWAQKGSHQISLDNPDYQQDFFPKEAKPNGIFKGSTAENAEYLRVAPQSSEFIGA
T10 sequence (P10721 26-976): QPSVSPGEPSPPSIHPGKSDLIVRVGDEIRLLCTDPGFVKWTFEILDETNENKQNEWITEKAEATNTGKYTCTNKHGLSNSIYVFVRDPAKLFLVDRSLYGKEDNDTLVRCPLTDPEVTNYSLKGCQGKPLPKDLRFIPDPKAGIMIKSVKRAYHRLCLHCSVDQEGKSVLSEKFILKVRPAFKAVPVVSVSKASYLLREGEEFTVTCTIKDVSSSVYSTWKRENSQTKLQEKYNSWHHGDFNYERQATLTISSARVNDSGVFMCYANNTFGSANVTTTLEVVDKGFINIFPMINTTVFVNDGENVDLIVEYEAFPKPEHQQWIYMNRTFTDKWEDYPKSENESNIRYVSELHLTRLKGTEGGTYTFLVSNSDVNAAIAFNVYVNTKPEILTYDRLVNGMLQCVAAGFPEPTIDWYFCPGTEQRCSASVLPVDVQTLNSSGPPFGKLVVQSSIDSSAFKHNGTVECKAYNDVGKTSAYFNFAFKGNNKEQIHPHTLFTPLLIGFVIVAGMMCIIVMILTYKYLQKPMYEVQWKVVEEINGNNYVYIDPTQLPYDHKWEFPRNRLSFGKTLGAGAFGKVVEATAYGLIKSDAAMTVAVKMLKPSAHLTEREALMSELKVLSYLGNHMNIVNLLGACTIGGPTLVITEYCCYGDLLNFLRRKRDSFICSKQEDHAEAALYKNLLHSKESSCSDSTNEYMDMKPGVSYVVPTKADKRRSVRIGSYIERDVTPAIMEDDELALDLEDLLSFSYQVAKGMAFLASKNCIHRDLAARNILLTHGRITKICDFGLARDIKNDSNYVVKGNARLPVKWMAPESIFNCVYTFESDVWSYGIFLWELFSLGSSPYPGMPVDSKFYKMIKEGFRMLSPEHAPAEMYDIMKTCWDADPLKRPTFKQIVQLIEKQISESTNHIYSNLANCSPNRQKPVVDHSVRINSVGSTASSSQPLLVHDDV
T2 sequence (P04049 306-648 Y340D/Y341D limits assumed): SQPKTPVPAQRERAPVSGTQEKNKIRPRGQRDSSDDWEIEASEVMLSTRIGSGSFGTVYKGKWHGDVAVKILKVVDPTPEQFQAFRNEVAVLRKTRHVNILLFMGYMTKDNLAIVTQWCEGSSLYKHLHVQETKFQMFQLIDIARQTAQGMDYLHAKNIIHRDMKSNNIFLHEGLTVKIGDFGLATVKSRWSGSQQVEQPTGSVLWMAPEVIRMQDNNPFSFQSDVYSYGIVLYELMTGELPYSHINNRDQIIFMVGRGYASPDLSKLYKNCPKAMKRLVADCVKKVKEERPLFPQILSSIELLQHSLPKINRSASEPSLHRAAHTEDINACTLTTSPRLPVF
T1 sequence (P04626 23-1255): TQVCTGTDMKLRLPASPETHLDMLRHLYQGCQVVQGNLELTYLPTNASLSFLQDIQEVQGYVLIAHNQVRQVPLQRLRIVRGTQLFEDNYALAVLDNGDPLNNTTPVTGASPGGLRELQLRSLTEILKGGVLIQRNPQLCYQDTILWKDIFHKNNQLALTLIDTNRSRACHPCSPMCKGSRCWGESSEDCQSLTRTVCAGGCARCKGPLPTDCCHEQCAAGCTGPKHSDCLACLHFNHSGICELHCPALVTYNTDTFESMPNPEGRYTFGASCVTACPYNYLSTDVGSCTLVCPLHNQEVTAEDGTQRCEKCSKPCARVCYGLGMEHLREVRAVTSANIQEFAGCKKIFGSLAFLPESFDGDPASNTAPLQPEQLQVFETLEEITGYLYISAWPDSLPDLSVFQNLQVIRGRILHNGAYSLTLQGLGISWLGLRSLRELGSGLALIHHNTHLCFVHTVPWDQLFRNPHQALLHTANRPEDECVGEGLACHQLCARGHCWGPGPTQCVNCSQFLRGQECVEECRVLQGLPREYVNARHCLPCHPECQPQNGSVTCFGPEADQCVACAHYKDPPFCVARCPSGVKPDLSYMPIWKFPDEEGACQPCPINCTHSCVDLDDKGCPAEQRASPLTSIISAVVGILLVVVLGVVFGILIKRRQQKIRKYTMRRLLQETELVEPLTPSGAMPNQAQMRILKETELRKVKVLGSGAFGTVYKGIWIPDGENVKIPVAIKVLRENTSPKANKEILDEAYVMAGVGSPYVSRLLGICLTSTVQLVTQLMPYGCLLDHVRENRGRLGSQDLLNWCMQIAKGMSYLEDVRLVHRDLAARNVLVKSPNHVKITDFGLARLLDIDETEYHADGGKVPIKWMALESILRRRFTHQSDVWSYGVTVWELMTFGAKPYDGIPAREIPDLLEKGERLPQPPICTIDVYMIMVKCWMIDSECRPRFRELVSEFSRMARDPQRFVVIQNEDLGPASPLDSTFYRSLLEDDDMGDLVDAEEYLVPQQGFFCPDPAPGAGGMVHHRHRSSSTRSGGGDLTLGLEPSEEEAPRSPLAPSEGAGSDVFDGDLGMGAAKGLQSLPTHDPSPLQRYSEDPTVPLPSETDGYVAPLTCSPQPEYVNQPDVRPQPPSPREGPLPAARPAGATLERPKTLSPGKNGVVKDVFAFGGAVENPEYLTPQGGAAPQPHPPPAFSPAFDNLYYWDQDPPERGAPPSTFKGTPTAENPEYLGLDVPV
T7 sequence (P10721 26-976 V560G): as the sequence (P10721 26-976) above, with V535G counted along it

With `Cc1nc(Nc2ncc(C(=O)Nc3c(C)cccc3Cl)s2)cc(N2CC[C@@H](O)C2)n1` [Compound XI, N-(2-chloro-6-methylphenyl)-2-[[2-methyl-6-((R)-3-hydroxypyrrolidin-1-yl)pyrimidin-4-yl]amino]thiazole-5-carboxamide], in data set [1], the “ratio of lung tissue concentration to plasma concentration, compared to dasatinib” value is on record as “significantly lower ratios”.
Take `Cc1nc(Nc2ncc(C(=O)Nc3c(C)cccc3Cl)s2)cc(N2CC[C@H](O)C2)n1` [Compound X, N-(2-chloro-6-methylphenyl)-2-[[2-methyl-6-((S)-3-hydroxypyrrolidin-1-yl)pyrimidin-4-yl]amino]thiazole-5-carboxamide]: in data set [1], the “ratio of lung tissue concentration to plasma concentration, compared to dasatinib” value is reported as “significantly lower ratios”.
As a reminder, the inhibition is how much of the control response was suppressed. In the case of `[2H]c1cc(C)c(NC(=O)c2cnc(Nc3cc(N4CCC(O)CC4)nc(C)n3)s2)c(Cl)c1` [Compound II, N-(2-chloro-4-deuterio-6-methyl-phenyl)-2-[[6-(4-hydroxy-1-piperidyl)-2-methyl-pyrimidin-4-yl]amino]thiazole-5-carboxamide], the inhibition at 0.001 µM on HER2 (at 1 nM), at RAF1 (at 1 nM), on BRAF (at 1 nM), at YES(T348I) (at 1 nM), on EGFR (at 1 nM) and on p38β (at 1 nM) was less than 50% in each case. In addition, the inhibition at 0.001 µM at KIT(V560G) (at 1 nM) is less than 50%; on FYN(isoform b) (at 1 nM) it was greater than 50%; on p38α (at 1 nM), less than 50%; at KIT (at 1 nM) it was less than 50%. Also, the inhibition at 0.01 µM was less than 50% on HER2; less than 50% on RAF1; less than 50% on BRAF; less than 50% on EGFR; less than 50% on p38β; greater than 50% on KIT(V560G). The results for the inhibition at 0.01 µM at p38α and at KIT were less than 50% and greater than 50%, respectively. For the same compound, the inhibition at 0.1 µM was less than 50% on HER2 (at 100 nM); less than 50% at RAF1 (at 100 nM); less than 50% at BRAF (at 100 nM); greater than 50% on EGFR (at 100 nM); less than 50% on p38β (at 100 nM); greater than 50% on KIT(V560G) (at 100 nM). The inhibition at 0.1 µM at p38α (at 100 nM) is less than 50%; at KIT (at 100 nM) it was greater than 50%.
Consider `[2H]c1cc(C)c(NC(=O)c2cnc(Nc3cc(N4CCCCC4)nc(C)n3)s2)c(Cl)c1` [Compound I, N-(2-chloro-4-deuterio-6-methyl-phenyl)-2-[[2-methyl-6-(1-piperidyl)pyrimidin-4-yl]amino]thiazole-5-carboxamide], for which the inhibition at 0.01 µM at ROCK1 was less than 50%; at HER2, less than 50%; at RAF1, less than 50%; at BRK it was greater than 50%; on PDGFRα(D842V), less than 50%; at BRAF, less than 50%. Moreover, the inhibition at 0.01 µM at FGFR3, on YES(T348I) (at 10 nM), on PKD1, on EGFR, at JAK1 and on RET(M918T) was less than 50% throughout. The inhibition at 0.01 µM on p38β is less than 50%; at Erk1, less than 50%; on EGFR(T790M/L858R) it was less than 50%; at SRM, greater than 50%; at KIT(V560G) it was less than 50%; at FYN(isoform b) (at 10 nM) it was greater than 50%. Besides, the inhibition at 0.01 µM on p38α, on EGFR(d746-750/T790M), on FGFR2, on KIT, on ALK and on MAP2K1 was less than 50% throughout. In addition, the inhibition at 0.01 µM on HER4 was less than 50%.
